Results from a melting point compilation (Tetko et al.; mined from patent text by program, amines drawn as free bases though some values may be those of a salt).

**Q.** For `COc1ccc(-c2cc(=O)n(C3CCCC3)nc2-c2ccc(OC)cc2)cc1`, which melting point is on record?
**A.** The melting point was 141 to 142 °C.

**Q.** With `O=c1ccn(CCO)c(C(O)c2ccccc2OCc2ccccc2)c1OCc1ccccc1` (stereo unspecified) as the compound, how does the melting point read?
**A.** The melting point was 196 to 197 °C.

**Q.** Which melting point does the source give for `Cc1cn(C(C)C(=O)N(C)C)nc1-c1ccco1` (stereo unspecified) here?
**A.** The melting point was 93 to 95 °C.

**Q.** For `CCOC(=O)CC1NCCN(CCc2c[nH]c3ccc(Cl)cc23)C1=O` (stereo unspecified), which melting point is on record?
**A.** Its melting point is 136 °C.

**Q.** For `COc1ccc2c(c1)CCC1(C)C2=CCC2(C)C(O)CCC12` (stereo unspecified), which melting point is on record?
**A.** Its melting point is 168 °C.

**Q.** For `C=CC(=O)Nc1ccc2ncnc(Nc3cccc(Br)c3)c2c1`, which melting point is on record?
**A.** The melting point was 258 to 261 °C.

**Q.** For `COc1cccc(-c2nc(-c3ccc(S(C)=O)cc3)[nH]c2-c2ccncc2)c1` (stereo unspecified), which melting point is on record?
**A.** Its melting point is 167 to 168 °C.

**Q.** Which melting point does the source give for `Nc1ccnc(CCl)n1` here?
**A.** Its melting point is 125 to 128 °C.

**Q.** With `Cc1cc2c(c(C)c1NC(=O)CC(C)(C)C)C(=O)C(C)(C)O2` as the compound, how does the melting point read?
**A.** The melting point was 181 to 182 °C.

**Q.** For `COc1cc(OC)nc(NC(=O)CC(F)=C(F)F)n1`, which melting point is on record?
**A.** The melting point was 127 to 130 °C.

**Q.** Which melting point does the source give for `O=C(Nc1ccc(-n2nc(C(F)(F)F)cc2C2CC2)cc1)c1cccc(F)c1F` here?
**A.** Its melting point is 147 to 152 °C.

**Q.** Which melting point does the source give for `COc1ccc(-c2nc3cc(OC)cc(-c4ccccc4)c3o2)cc1` here?
**A.** Its melting point is 92 °C.

**Q.** With `CS(=O)(=O)c1nccc(-n2nnc3ccccc32)n1` as the compound, how does the melting point read?
**A.** Its melting point is 202 °C.

**Q.** For `CCCc1nc2c(N)nc3ccc(-c4ccccc4CO)cc3c2s1`, which melting point is on record?
**A.** Its melting point is 194 to 196 °C.

**Q.** With `CC(=O)Nc1cc(C)nn1C(C)(C)C` as the compound, how does the melting point read?
**A.** The melting point was 118 to 120 °C.

**Q.** With `CC(=O)c1csc(S(N)(=O)=O)c1` as the compound, how does the melting point read?
**A.** Its melting point is 170 to 172 °C.

**Q.** Which melting point does the source give for `Fc1ccc(-c2ccc(C(F)(F)F)cn2)cc1` here?
**A.** Its melting point is 38 to 40 °C.

**Q.** For `C#Cc1cc(O)cc2nc(-c3ccc(O)cc3)oc12`, which melting point is on record?
**A.** Its melting point is 229 to 231 °C.

**Q.** For `CN1CSC(=Cc2cc(C(C)(C)C)c(O)c(C(C)(C)C)c2)C1=O`, which melting point is on record?
**A.** Its melting point is 142 to 144 °C.

**Q.** Which melting point does the source give for `Nc1ccc2c(c1)N(C(=O)CCCl)CC2` here?
**A.** The melting point was 158 to 159 °C.

**Q.** With `COC(=O)Nc1ccc(N)c([N+](=O)[O-])c1` as the compound, how does the melting point read?
**A.** Its melting point is 171 to 172 °C.

**Q.** For `C=CCOc1ccc(OC(C)=O)c2ccc(=O)[nH]c12`, which melting point is on record?
**A.** Its melting point is 142 to 143 °C.

**Q.** With `Cc1cc2c(nc1OCCCCN1CCN(c3cccc(Cl)c3Cl)CC1)NC(=O)CC2` as the compound, how does the melting point read?
**A.** The melting point was 138 to 139 °C.

**Q.** Which melting point does the source give for `CC(C)(CCOc1ccc(Cl)cc1Cl)C(=O)Cn1cncn1` here?
**A.** Its melting point is 62 °C.

**Q.** For `CCc1ccc(-c2c(Cl)c(CCl)nc3sc4c(c23)CCN(C(=O)OCc2ccccc2)C4)cc1`, which melting point is on record?
**A.** The melting point was 126 to 128 °C.

**Q.** Which melting point does the source give for `Cc1nc(N2CCCC2)sc1C(=O)c1ccc(Cl)c([N+](=O)[O-])c1` here?
**A.** The melting point was 168 to 171 °C.

**Q.** With `COc1cc2c(C3C(=O)Nc4ccccc43)ncnc2cc1OCc1ccccc1` (stereo unspecified) as the compound, how does the melting point read?
**A.** Its melting point is 280 to 285 °C.

**Q.** Which melting point does the source give for `Cc1ccc(Nc2nnc(-c3ccc(SC(F)(F)F)cc3)s2)cc1Cl` here?
**A.** Its melting point is 215 to 216 °C.

**Q.** For `CCCc1nc2c(N)nc3cc(Oc4cccc([N+](=O)[O-])c4)ccc3c2n1CC(C)C`, which melting point is on record?
**A.** Its melting point is 198 to 200 °C.

**Q.** With `NS(=O)(=O)c1cc2cc(N(Cc3ccccc3)Cc3ccccc3)ccc2s1` as the compound, how does the melting point read?
**A.** Its melting point is 122 to 124 °C.

**Q.** For `N#Cc1ccc(C(CC2CCCC2)C(=O)Nc2nccs2)cc1` (stereo unspecified), which melting point is on record?
**A.** The melting point was 62 to 64 °C.

**Q.** With `OCCn1cc(Br)c(Br)n1` as the compound, how does the melting point read?
**A.** Its melting point is 64 to 66 °C.

**Q.** With `COc1cc(C)c(C)cc1NC(=O)N1CCN(c2cccc(O)c2)CC1` as the compound, how does the melting point read?
**A.** The melting point was 177 to 178 °C.

**Q.** With `CC(C)(C)OC(=O)c1ccc(N2CC(CO)OC2=O)cc1F` (stereo unspecified) as the compound, how does the melting point read?
**A.** The melting point was 148 to 149 °C.

**Q.** Which melting point does the source give for `CN1CCN(C(=O)c2ccc(-c3[nH]nc4c3C(=O)c3c(NC(=O)NC5CNCCO5)cccc3-4)s2)CC1` (stereo unspecified) here?
**A.** The melting point was 190 °C.

**Q.** For `Cn1ccc2cccc(C(=O)N3CCN(c4ncccn4)CC3)c21`, which melting point is on record?
**A.** The melting point was 159 to 160 °C.

**Q.** Which melting point does the source give for `CC(C)(C)OC(=O)NCCCCn1c(-c2ccccc2)cc2ccc(C(=O)c3cc(CC(=O)O)c(-c4ccccc4)s3)cc21` here?
**A.** Its melting point is 167 to 169 °C.

**Q.** With `Clc1conc1OC1CN2CCC1CC2` (stereo unspecified) as the compound, how does the melting point read?
**A.** The melting point was 68 to 69 °C.

**Q.** Which melting point does the source give for `CN(C)C(=O)COC(=O)COc1ccc(C(=O)Nc2ccccc2Sc2ccccc2-c2nnn[nH]2)cc1` here?
**A.** The melting point was 205 to 206 °C.

**Q.** With `CC1(C)CCc2c(N3CCOCC3)nc3sc4c(NCCN5CCOCC5)ncnc4c3c21` as the compound, how does the melting point read?
**A.** The melting point was 100 to 101 °C.

**Q.** With `COC(=O)c1cc(OC)c([N+](=O)[O-])cc1N` as the compound, how does the melting point read?
**A.** Its melting point is 127 to 129 °C.
